Test results from ChEMBL document CHEMBL6134909 (Eur J Med Chem, 2025).
Calls of active or inactive are those of the source. The rule behind the calls is not given here.

Columns and labels:
Influenza A virus [1] = test: (§1) Anti-viral activity against Influenza A virus H3N2 A/Hong Kong/11/1968 infected in human A549 cells assessed as log reduction in viral titer at 1 uM incubated with compound and virus for 1 hr followed by inoculum removal and media replacement with compound measured after 48 hrs by extracting viral supernatant from cells and transferring supernatant to MDCK cells for measuring plaque formation; assay type: functional; conditions: time 49 hrs
Influenza A virus [2] = test: as §1, with “decrease” for “log reduction”, “replication” for “titer”; assay type: functional, organism-based; conditions: time 49.0 hrs

SMILES | log10PFU/ml (Influenza A virus [1]) | Activity (Influenza A virus [2])
COCOc1ccc(-c2nc3ncccn3c2NC2CCCCC2)c(F)c1 | 1.5 | Active
Cc1cc(C)n2c(NC3CCCCC3)c(-c3ccnc(Cl)c3)nc2n1 |  | Active
CCOC(=O)c1c(CSc2ccccc2)n(C)c2cc(Br)c(O)c(CN(C)C)c12 [UMIFENOVIR] | 1.5 | Active
CN1CCN(c2ccc(-c3nc4ncc(Cl)cn4c3NC3CCCCC3)c(F)c2)CC1 |  | Active
Fc1ccc(-c2nc3ncccn3c2NC2CCCCC2)cc1F |  | Active
Fc1cc(OCc2ccc(C(F)(F)F)cc2)ccc1-c1nc2ncccn2c1NC1CCCCC1 | 1.5 | Active
Oc1ccc(-c2nc3ncccn3c2NC2CCCCC2)c(F)c1 | 1.5 | Active
Clc1cnc2nc(-c3ccccc3)c(NC3CCCCC3)n2c1 | 1.5 | Active
COc1cc(OC)cc(-c2nc3ncccn3c2NC2CCCCC2)c1 | 1.5 | Active
COc1ccc(-c2nc3ncccn3c2NC2CCCCC2)cc1 |  | Active
Fc1ccc(-c2nc3ncccn3c2NC2CCCCC2)cc1N1CCOCC1 | 1.5 | Active
